Reference: patent EP4759817A1, “HETEROARYL COMPOUND, PREPARATION METHOD THEREFOR, AND USE THEREOF IN MEDICINE” (Jiangsu Hengrui Pharmaceuticals Co., Ltd., priority 2023, dated 2025)
pIC50: −log10 of the molar value.

Key:
HCT116 cells = experiment: HCT116 cell proliferation assay (CellTiter-Glo, 10 days); format: cell-based; conditions: growth inhibition, CTG assay Day 10
Description: • I. Experimental materials and instruments • 1. HCT116 cell line (Nanjing Kebai Biotechnology Co., Ltd., CBP60028) • 2. HCT116 MTAP-/- cell line (Nanjing Kebai Biotechnology Co., Ltd., CBP75002) • 3. DMSO (Sigma, D2650) • 4. McCoy's 5A medium (Gibco, 16600-082) • 5. Foetal bovine serum (FBS) (Gibco, 10091148) • 6. Phosphate buffered saline (DPBS) pH 7.4 (Gibco, 14190-144) • 7. Pen strep (PS) (Gibco, 15140-122) • 8. 0.25% Typsin-EDTA (1×) (Gibco, 25200-072) • 9. CellTiter-Glo® Luminescent Cell Viability Assay (Promega, G7572) • 10. 96-well round-bottom plate (JET, TCP002096) • 11. 96-well black clear bottom plate (Hangzhou Xinyou Biotechnology Co., Ltd., 060096) • 12. 1.2 mL 96-well deep well plate, clear, sterile, square-well, V-bottom (Titan, 02089063) • 13. 15-mL centrifuge tube (Titan) • 14. Biosafety cabinet (Thermo, 1300AII) • 15. Cell counter (Countstar, IC1000) • 16. Incubator (Thermo, I160) • 17. Centrifuge (Beckman coulter, Allegra X-12 centrifuge) • 18. PHERAstar FS microplate reader (BMG Labtech) • II. Experimental procedure • 1. Cell plating (Day 0) • a) The cell morphology was observed under a microscope to ensure confluence reached approximately 90%. • b) The cell supernatant was aspirated, the cells were washed once with PBS, and then the PBS was removed; and the cells were digested by adding an appropriate amount of trypsin, and left to stand at 37°C for 3 minutes. • c) The digestion was terminated by adding an equal volume of McCoy's 5A medium containing 10% FBS, and the cell suspension was collected and centrifuged at 300 g for 3 minutes; and the cells were resuspended in an appropriate amount of fresh medium. • d) The resuspended cell suspension was taken for counting. • e) The cell suspension was diluted to 1e4/mL using McCoy's 5A medium containing 10% FBS, and seeded at 50 µL per well, corresponding to 500 cells/well for HCT116 and 500 cells/well for HCT116 MTAP-/-. • f) The cell plate was placed in a 37°C, 5% carbon dioxide incubator and incubated overnight. • 2. Compound treatment (Day 1) • a) Each compound was serially diluted in DMSO to generate a 9-point concentration gradient (starting concentration: 10000 µM, 3-fold dilution; the highest concentration may be adjusted individually based on IC50 of different compounds); for example, in a 96-well round-bottom compound-dilution plate, 5 µL of the compound was sequentially diluted into 10 µL of DMSO. • b) Each concentration point of every compound was then diluted 250-fold into the corresponding volume of McCoy's 5A medium. • c) To each cell plate, 50 µL of the diluted compound solution as described above was added sequentially to the cell supernatant (50 µL/well). • d) The compound-treated cell plate was placed in a 37°C, 5% carbon dioxide incubator and incubated. • 3. […]

HCT116 MTAP-/- cells = experiment: HCT116 MTAP-/- cell proliferation assay (CellTiter-Glo, 10 days); format: cell-based; conditions: growth inhibition, CTG assay Day 10
Description: • I. Experimental materials and instruments • 1. HCT116 cell line (Nanjing Kebai Biotechnology Co., Ltd., CBP60028) • 2. HCT116 MTAP-/- cell line (Nanjing Kebai Biotechnology Co., Ltd., CBP75002) • 3. DMSO (Sigma, D2650) • 4. McCoy's 5A medium (Gibco, 16600-082) • 5. Foetal bovine serum (FBS) (Gibco, 10091148) • 6. Phosphate buffered saline (DPBS) pH 7.4 (Gibco, 14190-144) • 7. Pen strep (PS) (Gibco, 15140-122) • 8. 0.25% Typsin-EDTA (1×) (Gibco, 25200-072) • 9. CellTiter-Glo® Luminescent Cell Viability Assay (Promega, G7572) • 10. 96-well round-bottom plate (JET, TCP002096) • 11. 96-well black clear bottom plate (Hangzhou Xinyou Biotechnology Co., Ltd., 060096) • 12. 1.2 mL 96-well deep well plate, clear, sterile, square-well, V-bottom (Titan, 02089063) • 13. 15-mL centrifuge tube (Titan) • 14. Biosafety cabinet (Thermo, 1300AII) • 15. Cell counter (Countstar, IC1000) • 16. Incubator (Thermo, I160) • 17. Centrifuge (Beckman coulter, Allegra X-12 centrifuge) • 18. PHERAstar FS microplate reader (BMG Labtech) • II. Experimental procedure • 1. Cell plating (Day 0) • a) The cell morphology was observed under a microscope to ensure confluence reached approximately 90%. • b) The cell supernatant was aspirated, the cells were washed once with PBS, and then the PBS was removed; and the cells were digested by adding an appropriate amount of trypsin, and left to stand at 37°C for 3 minutes. • c) The digestion was terminated by adding an equal volume of McCoy's 5A medium containing 10% FBS, and the cell suspension was collected and centrifuged at 300 g for 3 minutes; and the cells were resuspended in an appropriate amount of fresh medium. • d) The resuspended cell suspension was taken for counting. • e) The cell suspension was diluted to 1e4/mL using McCoy's 5A medium containing 10% FBS, and seeded at 50 µL per well, corresponding to 500 cells/well for HCT116 and 500 cells/well for HCT116 MTAP-/-. • f) The cell plate was placed in a 37°C, 5% carbon dioxide incubator and incubated overnight. • 2. Compound treatment (Day 1) • a) Each compound was serially diluted in DMSO to generate a 9-point concentration gradient (starting concentration: 10000 µM, 3-fold dilution; the highest concentration may be adjusted individually based on IC50 of different compounds); for example, in a 96-well round-bottom compound-dilution plate, 5 µL of the compound was sequentially diluted into 10 µL of DMSO. • b) Each concentration point of every compound was then diluted 250-fold into the corresponding volume of McCoy's 5A medium. • c) To each cell plate, 50 µL of the diluted compound solution as described above was added sequentially to the cell supernatant (50 µL/well). • d) The compound-treated cell plate was placed in a 37°C, 5% carbon dioxide incubator and incubated. • 3. Re-digestion, re-plating and compound treatment (Day 5) • a) After 5 days of compound treatment, the compound-containing medium was aspirated, and the cells were rinsed once with PBS (100 µL/well); and the PBS was removed immediately. • b) The cells were digested by adding 25 µL of trypsin and incubated at 37°C for 3 minutes, and then the digestion was terminated by adding 175 µL/well of McCoy's 5A medium containing 10% FBS. • c) The cells were mixed thoroughly using a pipette, and re-plated at 1 : 20; and specifically, 10 µL of the cell suspension was aspirated to a new 96-well plate (pre-filled with 40 µL of McCoy's 5A medium containing 10% FBS. • d) Compounds were prepared and added according to steps a) to c) in Section 2, with 50 µL added per well. • e) The compound-treated cell plate was placed in a 37°C, 5% carbon dioxide incubator and incubated. • 4. […]

[1] = biological target: T1, Recombinant human PRMT5: MEP50 protein (Homo sapiens, UniProt O14744); experiment: Inhibitory activity against human PRMT5 enzymatic activity (HTRF quantification of SAH, +MTA); format: biochemical; conditions: +1 µM MTA; histone H4 peptide substrate (1-21), SAM; 37°C 120 min
T1 construct: purchased active motif 31521
Experimental: • 1. Recombinant human PRMT5: MEP50 protein (active motif, 31521) • 2. EPIgeneous Methyltransferase kit (cisbio, 62SAHPEH) • 3. 96-well plate (Sangon Biotech, F610960-0010) • 4. 384-well white plate (Perkin Elmer, 6007290) • 5. 1 M Tris-HCl [pH 8.5] (Sangon Biotech, B548141) • 6. Histone H4 peptide substrates (1-21) (BPS bioscience, 52014) • 7. 5'-deoxy-5'-(methylthio)adenosine (Aladdin, D168979-25 mg) • 8. Tween-20 (Sangon Biotech, A100777-0500) • 9. DMSO (Sigma, D2650) • 10. Incubator (Shanghai Boxun Medical Biological Instrument Corp.) • 11. PHERAstar FS microplate reader (BMG Labtech)
PRMT5 can induce the transfer of a methyl group from S-adenosylmethionine (SAM) to a histone H4 peptide substrate (1-21), generating S-adenosylhomocysteine (SAH). In this experiment, the amount of SAH produced in the reaction is quantified using a Homogeneous Time-Resolved Fluorescence (HTRF) method to evaluate the inhibitory activity of compounds against PRMT5 enzymatic activity.
The sample diluent containing (or not containing) 1 µM 5 '-deoxy-5' - (methylthiyl) adenosine (MTA) was prepared using the EPIgeneous Diluent Buffer from the EPIgeneous Methyltransferase kit. With reference to the instructions, SAM and SAH standards were serially diluted and dispensed at 10 µL per well (in duplicate for each concentration). 2 µL of EPIgeneous Detection Buffer 1 was added to each well, and the plate was centrifuged, shaken to mix thoroughly, and placed at room temperature for 10 min. The SAH d2 Reagent was diluted 32-fold with EPIgeneous Detection Buffer 2, and 4 µL of the diluted SAH-d2 solution was added to each well. The plate was centrifuged and shaken for 2 min to mix thoroughly. The SAH Tb Cryptate Antibody was diluted 50-fold in EPIgeneous Detection Buffer 2. 4 µL of the diluted Tb Cryptate Antibody solution was added to each well, and the plate was centrifuged, shaken for 2 min to mix thoroughly, and left to stand at room temperature for 60 min, followed by reading on a PHERAstar FS microplate reader to obtain the 665/620 ratio. Plotting SAH concentration against the ratio to generate an x-y curve yields a corresponding calculation formula.
Reaction buffer (1×): 50 mM Tris-HCl [pH 8.5], 1 mM DTT, 0.005% Tween-20.
Compound preparation: a 20 mM solution of test compound in 100% DMSO was diluted in 100% DMSO to 1 mM as the highest concentration, and the solution at this concentration was then subjected to a 10-point, 3-fold serial dilution in 100% DMSO in a 96-well plate. Wells containing 100% DMSO served as the blank control. The above-described serially diluted compounds and the 100% DMSO were diluted 20-fold with the reaction buffer to prepare 5× compound solutions, which were mixed thoroughly for use.
The PRMT5:MEP50 was diluted in the reaction buffer to a final concentration of 12.5 nM. Then, 4 µL of the 12.5 nM PRMT5:MEP50 solution was added to each well of a 384-well plate. Wells containing 4 µL of the reaction buffer served as the negative control wells. 2 µL of the 5× compound solution was added to each well. For the negative control wells (no enzyme, no compound) and the positive control wells (no compound), 2 µL of 5% DMSO was added. The plate was sealed with a membrane, centrifuged, shaken for 2 min to mix thoroughly, and placed at room temperature for 20 min.
Preparation of substrate mixture solution: The substrate mixture solution containing 1.5 µM histone H4 peptide substrate (1-21) and 2.5 µM SAM, or 1.5 µM histone H4 peptide substrate (1-21), 2.5 µM SAM and 2.5 µM MTA was prepared in the reaction buffer.
The reaction was initiated by adding 4 µL of the substrate mixture solution (-/+ MTA) to each well. The plate was sealed with a membrane, centrifuged, shaken for 2 min to mix thoroughly, and incubated at 37°C for 120 min in a constant temperature incubator.
Detection: The detection was performed by using the EPIgeneous Methyltransferase kit. […]

T1 sequence (O14744 whole entry): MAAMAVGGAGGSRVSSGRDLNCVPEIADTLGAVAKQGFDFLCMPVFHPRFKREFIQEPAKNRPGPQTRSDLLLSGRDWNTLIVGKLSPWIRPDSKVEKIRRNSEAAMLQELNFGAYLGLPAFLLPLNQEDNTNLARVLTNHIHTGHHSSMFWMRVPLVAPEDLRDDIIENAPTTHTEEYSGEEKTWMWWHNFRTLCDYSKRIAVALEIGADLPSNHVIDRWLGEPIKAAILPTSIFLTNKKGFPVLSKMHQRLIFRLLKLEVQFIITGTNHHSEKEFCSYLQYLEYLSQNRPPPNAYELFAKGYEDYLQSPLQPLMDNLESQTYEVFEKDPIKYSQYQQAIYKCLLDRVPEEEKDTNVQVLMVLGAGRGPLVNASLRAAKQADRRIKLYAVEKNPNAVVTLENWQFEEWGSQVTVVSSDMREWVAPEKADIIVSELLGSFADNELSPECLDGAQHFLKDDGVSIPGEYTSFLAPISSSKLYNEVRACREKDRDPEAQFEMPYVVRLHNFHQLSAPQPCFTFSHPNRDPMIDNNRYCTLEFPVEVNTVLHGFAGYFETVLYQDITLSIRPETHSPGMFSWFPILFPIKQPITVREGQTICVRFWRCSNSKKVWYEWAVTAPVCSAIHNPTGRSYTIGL
T1 sequence (Q9BQA1 whole entry partner): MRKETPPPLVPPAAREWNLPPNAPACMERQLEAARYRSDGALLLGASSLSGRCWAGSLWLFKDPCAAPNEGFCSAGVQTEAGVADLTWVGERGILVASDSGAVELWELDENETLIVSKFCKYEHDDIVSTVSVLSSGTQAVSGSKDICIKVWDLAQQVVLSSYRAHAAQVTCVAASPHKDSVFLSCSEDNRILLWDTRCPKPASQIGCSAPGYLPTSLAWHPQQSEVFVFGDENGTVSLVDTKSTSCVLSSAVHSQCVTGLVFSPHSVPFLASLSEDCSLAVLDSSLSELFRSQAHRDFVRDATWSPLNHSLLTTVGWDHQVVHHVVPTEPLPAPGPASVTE

Row | pIC50 (HCT116 cells) | pIC50 (HCT116 MTAP-/- cells) | IC50 [1] [nM] | pIC50 (HCT116 MTAP-/- cells; Homo sapiens, HCT-116, 240 h) | pIC50 (HCT116 cells; Homo sapiens, HCT-116, 240 h) | SMILES
1 | 5.63 | 7.88 |  |  |  | Cn1ncc(-c2ccc3c(=O)[nH]nc(CN)c3c2)c1-c1c(F)cc2c(c1C#N)O[C@@H]1CC[C@@H]1O2 (atropisomer, axis not shown; (M)) [Compound 1-p2, (M)-(2aR,8aS)-5-(4-(4-(aminomethyl)-1-oxo-1,2-dihydrophthalazin-6-yl)-1-methyl-1H-pyrazol-5-yl)-6-fluoro-1,2,2a,8a-tetrahydrobenzo[b]cyclobuta[e][1,4]dioxine-4-carbonitrile]
2 |  |  | 2.8 | 7.82 |  | [2H]C([2H])([2H])n1ncc(-c2ccc3c(=O)[nH]nc(CN)c3c2)c1-c1c(F)c(Cl)c2c(c1C#N)N1CCC[C@H]1CO2 (atropisomer, axis not shown; (M)) [Compound 13-p1, (M)-(S)-8-(4-(4-(aminomethyl)-1-oxo-1,2-dihydrophthalazin-6-yl)-1-(methyl-d3)-1H-pyrazol-5-yl)-6-chloro-7-fluoro-2,3,3a,4-tetrahydro-1H-benzo[b]pyrrolo[1,2-d][1,4]oxazine-9-carbonitrile]
3 |  |  | 7.01 | 7.87 | 5.62 | [2H]C([2H])([2H])n1ncc(-c2ccc3c(=O)[nH]nc(CN)c3c2)c1-c1c(F)cc2c(c1C#N)O[C@@H]1CC[C@@H]1O2 (single isomer, unassigned) [Compound 2-p2]
